Measured values: US12091426B2, “Bifunctional degraders of hematopoietic progenitor kinase and therapeutic uses thereof” (Nurix Therapeutics, Inc., priority 2021, dated 2024)

Target: T1, HPK1 (Homo sapiens, UniProt Q92918)
T1 construct: A HiBiT tag was introduced by CRISPR on the N terminus of HPK1 in Jurkat cells; host or cells: Jurkat cells (ATCC TIB-152), monoclonal line with CRISPR knock-in of HiBiT at the endogenous HPK1 locus
Experiment: HPK1 Cellular HiBit Degradation Assay
Type: cell-based
Conditions: HiBiT HPK1 Jurkat cells, 24 hrs; for DC50: concentration at which 50% of HPK1 was remaining, read-out: DC50 Category; for Dmax: Jurkat, maximum degradation vs DMSO vehicle control, read-out: Dmax Category
Procedure, shortened: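 HiBiT-HPK1 Jurkat (CRISPR, N-term tag), 3×10^4 cells/well, RPMI 1640 + 10% FBS; CTMs 10 uM–0.1 nM, 11 pts; 24 hrs, 37° C/5% CO2; lytic HiBiT luminescence; % remaining vs DMSO, parental background subtracted; 4-parameter fit → DC50, Dmax.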

T1 sequence (Q92918 whole entry): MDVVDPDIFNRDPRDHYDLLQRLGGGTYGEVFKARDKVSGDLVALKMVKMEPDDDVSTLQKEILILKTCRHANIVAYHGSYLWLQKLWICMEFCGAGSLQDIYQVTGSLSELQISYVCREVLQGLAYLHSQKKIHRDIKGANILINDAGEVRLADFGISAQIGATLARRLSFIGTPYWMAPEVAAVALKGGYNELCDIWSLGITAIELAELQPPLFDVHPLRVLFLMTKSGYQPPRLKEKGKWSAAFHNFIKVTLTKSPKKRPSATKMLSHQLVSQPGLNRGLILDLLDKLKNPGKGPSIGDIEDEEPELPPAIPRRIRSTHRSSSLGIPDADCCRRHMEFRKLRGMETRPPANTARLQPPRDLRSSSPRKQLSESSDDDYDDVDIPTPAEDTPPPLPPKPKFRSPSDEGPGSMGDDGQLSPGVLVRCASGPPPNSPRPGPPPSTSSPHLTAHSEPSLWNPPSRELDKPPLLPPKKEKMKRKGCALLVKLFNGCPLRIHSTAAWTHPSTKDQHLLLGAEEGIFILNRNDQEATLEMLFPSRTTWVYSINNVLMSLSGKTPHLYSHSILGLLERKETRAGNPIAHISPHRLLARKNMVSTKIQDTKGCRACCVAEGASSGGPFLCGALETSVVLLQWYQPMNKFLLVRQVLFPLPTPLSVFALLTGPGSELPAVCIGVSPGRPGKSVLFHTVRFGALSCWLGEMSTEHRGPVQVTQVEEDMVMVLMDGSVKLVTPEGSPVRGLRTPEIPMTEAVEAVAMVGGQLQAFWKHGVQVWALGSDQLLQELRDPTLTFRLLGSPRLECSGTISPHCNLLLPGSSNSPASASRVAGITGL

DC50 [nM] | Dmax [%] | SMILES
100 to 500 | 50 to 70 | CC(C)n1cnc2cc(-c3ccc4c(c3)N([C@H]3C[C@@H](N5CCCCC5)C3)C(=O)C43CCN(C(=O)C4CN(C(=O)C5CCN(c6ccc(C7CCC(=O)NC7=O)cc6)CC5)CC(F)(F)C4)CC3)nc(NC3CC3)c21 (mixture of isomers) [Example 268, (3RS)-3-(4-{4-[5-({6-[4-(cyclopropylamino)-3-(propan-2-yl)-3H-imidazo[4,5-c]pyridin-6-yl]-2-oxo-1-[(1S,3S)-3-(piperidin-1-yl)cyclobutyl]-1,2-dihydrospiro[indole-3,4′-piperidin]-1′-yl}carbonyl)-3,3-Difluoropiperidine-1-carbonyl]piperidin-1-yl}phenyl)piperidine-2,6-dione]
100 to 500 | > 85 | CC(C)n1cnc2cc(-c3ccc4c(c3)N([C@H]3C[C@@H](N5CCCCC5)C3)C(=O)C43CCN(C(=O)C4CCN(C(=O)C5CCN(c6ccc(C7CCC(=O)NC7=O)cn6)CC5)CC4)CC3)nc(Oc3ccccc3F)c21 (mixture of isomers) [Example 76, (3RS)-3-(6-{4-[4-({6-[4-(2-fluorophenoxy)-3-(propan-2-yl)-3H-imidazo[4,5-c]pyridin-6-yl]-2-oxo-1-[(1S,3S)-3-(piperidin-1-yl)cyclobutyl]-1,2-dihydrospiro[indole-3,4′-piperidin]-1′-yl}carbonyl)piperidine-1-carbonyl]piperidin-1-yl}pyridin-3-yl)piperidine-2,6-dione]

Second part, the molecule before the results:

SMILES | DC50 [nM] | Dmax [%]
CC(C)n1cnc2cc(-c3ccc4c(c3)N([C@H]3C[C@@H](N5CCCCC5)C3)C(=O)C43CCN(C(=O)[C@@H]4CCN(C(=O)[C@H]5CC[C@H](Nc6ccc(C7CCC(=O)NC7=O)cn6)CC5)C4)CC3)nc(NC3CC3)c21 (mixture of isomers) [Example 5, (3RS)-3-(6-{[(1R,4R)-4-[(3R)-3-({6-[4-(cyclopropylamino)-3-(propan-2-yl)-3H-imidazo[4,5-c]pyridin-6-yl]-2-oxo-1-[(1S,3S)-3-(piperidin-1-yl)cyclobutyl]-1,2-dihydrospiro[indole-3,4′-piperidin]-1′-yl}carbonyl)pyrrolidine-1-carbonyl]cyclohexyl]amino}pyridin-3-yl)piperidine-2,6-dione] | 100 to 500 | 70 to 85
CC(C)n1cnc2cc(-c3ccc4c(c3)N([C@H]3C[C@@H](N5CCCCC5)C3)C(=O)C43CCN(C(=O)C4CN(C(=O)C5CCN(c6ccc(C7CCC(=O)NC7=O)cn6)CC5)C4)CC3)nc(Nc3ccccc3F)c21 (mixture of isomers) [Example 242, (3RS)-3-[6-(4-{3-[(6-{4-[(2-fluorophenyl)amino]-3-(propan-2-yl)-3H-imidazo[4,5-c]pyridin-6-yl}-2-oxo-1-[(1S,3S)-3-(piperidin-1-yl)cyclobutyl]-1,2-dihydrospiro[indole-3,4′-piperidin]-1′-yl)carbonyl]azetidine-1-carbonyl}piperidin-1-yl)pyridin-3-yl]piperidine-2,6-dione] | < 100 | > 85
CC(C)n1cnc2cc(-c3ccc4c(c3)N([C@H]3C[C@@H](N5CCCCC5)C3)C(=O)C43CCN(C(=O)[C@]4(C)CCN(C(=O)[C@H]5CC[C@H](Oc6ccc(C7CCC(=O)NC7=O)cn6)CC5)C4)CC3)nc(NC3CC3)c21 (stereo partly drawn) [Example 163, 3-(6-(((1R,4R)-4-((R)-3-(6-(4-(cyclopropylamino)-3-isopropyl-3H-imidazo[4,5-c]pyridin-6-yl)-2-oxo-1-((1S,3S)-3-(piperidin-1-yl)cyclobutyl)spiro[indoline-3,4′-piperidine]-1′-carbonyl)-3-methylpyrrolidine-1-carbonyl)cyclohexyl)oxy)pyridin-3-yl)piperidine-2,6-dione] | 100 to 500 | > 85
